Measurements published in patent publication US20190284168A1, “PYRAZOLE DERIVATIES AS SGC STIMULATORS” (IRONWOOD PHARMACEUTICALS, INC., priority 2014, published 2019).

What was measured:
sickle mice = details: oral, high doses; cited from earlier work
[1] = biological target: T1, soluble guanylate cyclase (sGC) (Homo sapiens, UniProt Q02108+Q02153); assay: sGC-HEK-cGMP assay with LC/MS detection; format: cell-based; details: HEK293 whole cells, LC/MS detection of cGMP, 10 μM DETA-NONOate; 50% of high control response (30 μM Compound Y); read-out: Absolute EC50 (nM)- binned (~)
T1 construct: endogenously expressing soluble guanylate cyclase (sGC); endogenous in cells; host or cells: HEK293
T1 sequence (Q02153 1-619): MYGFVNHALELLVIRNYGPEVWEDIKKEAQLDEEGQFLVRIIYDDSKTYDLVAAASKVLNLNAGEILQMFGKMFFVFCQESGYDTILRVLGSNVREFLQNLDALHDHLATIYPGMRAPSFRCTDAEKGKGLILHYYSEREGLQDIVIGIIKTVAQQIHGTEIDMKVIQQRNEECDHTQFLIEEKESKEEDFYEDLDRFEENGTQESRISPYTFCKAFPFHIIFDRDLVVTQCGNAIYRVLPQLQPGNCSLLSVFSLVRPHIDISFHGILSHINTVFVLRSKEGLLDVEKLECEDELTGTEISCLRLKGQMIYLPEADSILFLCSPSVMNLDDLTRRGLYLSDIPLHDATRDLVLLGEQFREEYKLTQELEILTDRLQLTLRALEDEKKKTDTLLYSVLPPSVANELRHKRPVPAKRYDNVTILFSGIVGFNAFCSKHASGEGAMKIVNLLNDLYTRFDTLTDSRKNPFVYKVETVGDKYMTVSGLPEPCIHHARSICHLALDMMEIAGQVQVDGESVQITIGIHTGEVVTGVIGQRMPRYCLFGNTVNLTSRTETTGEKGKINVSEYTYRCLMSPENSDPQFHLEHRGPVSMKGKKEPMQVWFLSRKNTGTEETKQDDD
T1 sequence (Q02108 1-690): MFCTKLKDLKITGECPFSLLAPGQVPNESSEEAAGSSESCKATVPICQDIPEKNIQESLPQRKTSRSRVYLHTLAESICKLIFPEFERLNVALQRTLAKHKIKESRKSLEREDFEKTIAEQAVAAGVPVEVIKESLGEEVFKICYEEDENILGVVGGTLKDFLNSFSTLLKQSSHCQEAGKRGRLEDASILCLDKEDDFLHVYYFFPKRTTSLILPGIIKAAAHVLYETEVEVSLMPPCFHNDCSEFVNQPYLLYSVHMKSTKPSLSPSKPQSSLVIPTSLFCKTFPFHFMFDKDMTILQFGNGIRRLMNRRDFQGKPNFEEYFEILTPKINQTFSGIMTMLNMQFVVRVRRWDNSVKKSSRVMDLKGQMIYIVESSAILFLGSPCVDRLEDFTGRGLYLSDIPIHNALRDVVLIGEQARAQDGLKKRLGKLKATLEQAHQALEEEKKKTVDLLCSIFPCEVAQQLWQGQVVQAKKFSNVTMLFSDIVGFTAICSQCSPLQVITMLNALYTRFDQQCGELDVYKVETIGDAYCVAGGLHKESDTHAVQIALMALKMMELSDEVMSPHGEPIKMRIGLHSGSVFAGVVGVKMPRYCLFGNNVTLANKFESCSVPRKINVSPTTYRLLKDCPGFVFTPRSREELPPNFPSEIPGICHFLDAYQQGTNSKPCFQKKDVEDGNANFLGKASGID
Procedure: Human embryonic kidney cells (HEK293), endogenously expressing soluble guanylate cyclase (sGC), were used to evaluate the activity of test compounds. Compounds stimulating the sGC enzyme should cause an increase in the intracellular concentration of cGMP. HEK 293 cells were seeded in Dulbecco's Modification of Eagle's Medium supplemented with fetal bovine serum (10% final) and penicillin (100 U/mL)/streptomycin (100 μg/mL) in a 50 μL volume at a density of 1.5×10^4 cells/well in a poly-D-lysine coated 384 well flat bottom plate. Cells were incubated overnight at 37° C. in a humidified chamber with 5% CO2. Medium was aspirated and cells were washed with 1× Hank's Buffered Saline Salt Solution (50 μL). Cells were then incubated for 15 minutes at 37° C. with 50 μL of a 0.5 mM 3-isobutyl-1-methylxanthine (IBMX) solution.
were then added to the assay mixture and the resulting mixture incubated at 37° C. for 20 minutes. After the 20 minute incubation, the assay mixture was aspirated and 10% acetic acid containing 150 ng/mL+3-cGMP (internal standard for LCMS) (50 μL) was added to the cells. The plate was incubated at 4° C. for 30 minutes in the acetic acid solution to stop the reaction and lyse the cells. The plates were then centrifuged at 1,000 g for 3 minutes at 4° C. and the supernatant transferred to a clean reaction plate for LCMS analysis.
cGMP concentrations were determined from each sample using the LCMS conditions below (Table 2) and calculated standard curve.
Data were fit using a 4-parameter fit (log(agonist) vs. response—variable slope) using GraphPad Prism Software v.5. n=2 for all compounds. […] Compounds failing to elicit a minimum response of 50% are reported as >30 μM.

Sprague-Dawley Rats = assay: Blood pressure change in Sprague-Dawley rats; format: in vivo, rat; details: 10 mpk PO, conscious Sprague-Dawley rats
Procedure: Male rats (250-350 g body weight, supplied by Harlan Laboratories) were anesthetized with ketamine/xylazine and a heparinized saline fluid filled catheter implanted into the right femoral artery. The catheter was exteriorized between the scapula, capped, and the animal allowed to recover for at least 7 days post surgery prior to any compound testing. Prior to testing animals were maintained on normal diet, with free access to drinking water, under a 12 hour light-dark cycle.
On the day of experimentation, under inhaled isoflurane anesthesia, the catheter was uncapped and connected to a tether (Instech Labs) and pressure transducer (Harvard Apparatus). Blood pressure and heart rate were subsequently captured and analyzed with a dedicated data capture system (PowerLab, ADInstruments). Data sampling rates were set at 1 cycle per second. Once connected, each rat was allowed to recover from anesthesia and baseline blood pressure and heart rate levels were established in these conscious, freely-moving animals. Once baseline was established either vehicle (0.5% methylcellulose or 100% PEG400) or test article was administered orally (PO, 10 mg/kg) and the effects on blood pressure and heart rate monitored for up to 24 hours.
Data are reported as hourly averages and changes in blood pressure are calculated from subtracting individual baseline on an hourly basis (Table 4)

mdx mouse = details: cited from earlier work
[2] = test system: sickle cell disease patients with severe PHT; details: cited from earlier work
[3] = test system: adult sickle cell disease patients; details: infusions; cited from earlier work
[4] = test system: adult patients with sickle cell disease; details: acute VOE, vs placebo; cited from earlier work
[5] = test system: Guinea pig tracheal smooth muscle; assay: Electrical field stimulated guinea pig tracheal smooth muscle contraction; details: guinea pig tracheal strips, sub-maximal EFS; 95% CI 0.78-0.94; read-out: IC50, inhibition of EFS-induced tracheal smooth muscle contraction
Source text: It is possible to assess the bronchodilating effects of sGC stimulators by using the system described below. This system allows us to determine potency, efficacy and duration of action of several sGC stimulators, as well as to assess potential side effects such as blood pressure, or heart rate changes.
Animals: Guinea pig, Dunkin Hartley, male, Full barrier-bred and certified free of specific micro-organisms on receipt 525-609 g on the experimental day, Harlan UK Ltd. Guinea pigs are housed in a group of 4 in solid-bottomed cages with Gold Flake bedding in a controlled environment (airflow, temperature and humidity). Food (FD1, Special Diet Services) and water are provided ad libitum.
On each experimental day, a guinea pig is killed by exposure to a rising concentration of CO2 and the trachea removed. […] Tissues are washed with Kreb's buffer and stimulated using the previously determined sub-maximal voltage for 1 hour to establish a stable baseline contraction prior to assessment of compound activity.
A cumulative dose response curve (DRC) to each test substance is then performed and changes in smooth muscle contraction measured. The effect of each test substance in each experiment is expressed as a percentage inhibition of the baseline contraction, normalized to the relevant vehicle controls. […]

obese mice = details: cited from earlier work
NO-defficient rats = details: NO-deficient rats; cited from earlier work

In the case of `N=C(N)NCCC[C@H](N)C(=O)O` [L-arginine, arginine], the “Gardos channel activity, dense cell formation and hemolysis” value (sickle mice) is given as “decrease Gardos channel activity, dense cell formation and hemolysis”.
For `Fc1cnc(-c2cc(-c3ccon3)n(Cc3ccccc3F)n2)nc1` [Compound 109], the EC50 [1] was 100 to 1000 nM and the “Rat Mean Arterial Pressure peak change from baseline (at 3 or 10 mpk@)” value (Sprague-Dawley Rats) was “B (B = −20 ≤ peak change from baseline at 3 or 10 mpk ≤ −10)”.
In the case of `CCCc1nn(C)c2c(=O)[nH]c(-c3cc(S(=O)(=O)N4CCN(C)CC4)ccc3OCC)nc12` [sildenafil, Sildenafil], the “muscle ischemia, injury and fatigue after a brief bout of exercise” value (mdx mouse) is listed as “alleviate muscle ischemia, as well as injury and fatigue”, the “serious side effects (VOE, headache, visual disturbance)” value ([2]; Walk-PHaSST multicenter trial, stopped prematurely) is listed as “higher frequency of serious side effects” and the “PAP and exercise capacity” value ([2]; sickle cell disease patients with severe PHT) is listed as “improvements in PAP and exercise capacity”.
For `O=NO` [sodium nitrite], the forearm blood flow [3] is listed as “enhanced forearm blood flow”.
In the case of nitric oxide [inhaled NO], the pain scores [4] is given as “significantly reduced pain scores”.
For `CC(C)[N+]1(C)[C@@H]2CC[C@H]1CC(OC(=O)C(CO)c1ccccc1)C2` (some centres unmarked) [Ipratropium bromide, ipratropium bromide], the IC50 [5] was 0.86 nM.
In the case of `O=C(O)CCCCN(CCc1cc(F)ccc1OCc1ccc(-c2ccc(C(F)(F)F)cc2)cc1)Cc1ccc(C(=O)O)cc1` [BAY 60-2770], the overactive bladder (obese mice) is given as “ameliorates overactive bladder”.
In the case of `Nc1nc(-c2nn(Cc3ccccc3F)c3ncccc23)ncc1C1CC1` [BAY-2272], the bladder dysfunction (NO-defficient rats) is listed as “protective effects”.
